From PubChem BioAssay (NCI)
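Values below derive from 48-hour exposures of cells grown in 96-well plates, with endpoints linearly interpolated between the two concentrations bracketing the appropriate inhibition level. The concentration for 50% growth inhibition is given as GI50. At the TGI there is no net growth.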

Tests used:
Assay in all cases: DTP human tumour cell line panel, 48 h
ACHN renal = tested on: ACHN renal
HCC-2998 colon = tested on: HCC-2998 colon
NCI-H23 lung = tested on: NCI-H23 lung
SF-539 CNS = tested on: SF-539 CNS
A498 renal = tested on: A498 renal
SK-OV-3 ovarian = tested on: SK-OV-3 ovarian
SK-MEL-28 melanoma = tested on: SK-MEL-28 melanoma
K-562 leukemia = tested on: K-562 leukemia
NCI-H226 lung = tested on: NCI-H226 lung
BT-549 breast = tested on: BT-549 breast

| SMILES | TGI (ACHN renal) [µM] | TGI (HCC-2998 colon) [µM] | TGI (NCI-H23 lung) [µM] | TGI (SF-539 CNS) [µM] | TGI (A498 renal) [µM] | TGI (SK-OV-3 ovarian) [µM] | TGI (SK-MEL-28 melanoma) [µM] | TGI (K-562 leukemia) [µM] | TGI (NCI-H226 lung) [µM] | GI50 (ACHN renal) [µM] | GI50 (HCC-2998 colon) [µM] | GI50 (BT-549 breast) [µM] | TGI (BT-549 breast) [µM] | GI50 (NCI-H23 lung) [µM] | GI50 (SF-539 CNS) [µM] | GI50 (SK-OV-3 ovarian) [µM] | GI50 (SK-MEL-28 melanoma) [µM] | GI50 (K-562 leukemia) [µM] | GI50 (NCI-H226 lung) [µM] | GI50 (A498 renal) [µM] |
| --- | --- | --- | --- | --- | --- | --- | --- | --- | --- | --- | --- | --- | --- | --- | --- | --- | --- | --- | --- | --- |
| CS(=O)(=O)N(CCC#N)c1ccc(/C=N/NC(=O)CC(=O)Nc2cccc(Cl)c2)cc1 | > 100 | > 100 | > 100 | > 100 | > 100 | > 100 | > 100 | > 100 | > 100 |  |  |  |  |  |  |  |  |  |  |  |
| COc1ccc(S(=O)(=O)N/N=C/CN2C(=O)c3ccccc3C2=O)cc1OC | > 100 | > 100 | > 100 | > 100 | > 100 | > 100 |  | > 100 |  |  |  |  |  |  |  |  |  |  |  |  |
| CC(C)COC(=O)N1N=NC2C3OC(CC3=O)C21 (stereo not given) | > 100 | > 100 | > 100 | > 100 | > 100 | > 100 | > 100 | > 100 | > 100 |  |  |  |  |  |  |  |  |  |  |  |
| C=CCC12CCC(=O)C=C1CCC1(C2)OCCO1 (stereo not given) | > 100 | > 100 |  | > 100 | > 100 | > 100 | > 100 | > 100 | > 100 |  |  |  |  |  |  |  |  |  |  |  |
| CCOC(=O)C(=O)C1C(=O)Nc2ccccc21 (stereo not given) | > 100 | > 100 | > 100 |  | > 100 |  | > 100 | > 100 | > 100 |  |  |  |  |  |  |  |  |  |  |  |
| Oc1ccc2occ3c2c1CCC3 | > 100 | > 100 | > 100 | > 100 | > 100 | > 100 | > 100 | > 100 |  |  |  |  |  |  |  |  |  |  |  |  |
| CC1=C(C)CC2(SC1)C(=O)c1ccccc1C2=O | > 100 | > 100 |  | > 100 | > 100 | > 100 |  | > 100 | > 100 |  |  |  |  |  |  |  |  |  |  |  |
| O=C(O)CNS(=O)(=O)c1ccc(NC(=O)c2ccc(F)cc2)cc1 | > 100 | > 100 | > 100 | > 100 | > 100 | > 100 | > 100 | > 100 |  |  |  |  |  |  |  |  |  |  |  |  |
| CCN(CC)CC(=O)/C=C/c1ccc(C)cc1 | 35.1 | 31.7 | > 100 | 37 | > 100 | 82.5 | 43 | > 100 | 53.8 |  |  |  |  |  |  |  |  |  |  |  |
| CCN(CC)c1ccc(N=C2C=CC(=O)c3ncccc32)c(C)c1 | 12.7 | 24.2 | 18.6 | 19.4 |  | 34.3 | 24.5 | 5.95 | 38.8 |  |  |  |  |  |  |  |  |  |  |  |
| CC1CCC2(NC1)OC1CC3[C@@H]4CC=C5C=CCC[C@]5(C)C4CC[C@]3(C)C1C2C (stereo not given in full) | 44.6 | 31.4 | > 100 | 43.2 | > 100 | 68.4 | 30 | 46.6 | > 100 |  |  |  |  |  |  |  |  |  |  |  |
| COc1cc(C(=O)/C=C/c2c(-c3ccc(F)cc3)nc3sc(C)cn23)cc(OC)c1OC | > 100 | > 100 | 8.87 | > 100 |  | > 100 | > 100 | > 100 | > 100 | 5.83 | 9.93 | 3.75 | > 100 | 2.24 | 6.23 | 6.12 | 7.07 | 5.46 | 9.58 |  |
| O=c1[nH]c(-c2ccccc2)nc2ccc(Cl)cc12 | > 100 | > 100 | > 100 | > 100 |  |  | > 100 | > 100 | > 100 |  |  |  |  |  |  |  |  |  |  |  |
| O=c1[nH]c(=O)n(C2CC(O)C(CO)O2)cc1C(OCC(F)(F)F)OCC(F)(F)F (stereo not given) | > 100 | > 100 | > 100 | > 100 | > 100 | > 100 | > 100 | > 100 |  |  |  |  |  |  |  |  |  |  |  |  |
| CC(=O)NC1=C(C)C(=O)c2c(nc3n2CCC3O)C1=O (stereo not given) | > 100 | > 100 | > 89.8 | 51.3 | > 100 | > 100 | > 100 | 44.3 | 63.4 |  |  |  |  |  |  |  |  |  |  |  |
| OCCN(CCO)c1cccc(N(CCO)CCO)c1 | > 100 |  | > 100 |  | > 100 | > 100 | > 100 | > 100 |  |  |  |  |  |  |  |  |  |  |  |  |

| SMILES | TGI (ACHN renal) [µM] | TGI (HCC-2998 colon) [µM] | TGI (NCI-H23 lung) [µM] | TGI (SF-539 CNS) [µM] | TGI (A498 renal) [µM] | TGI (SK-OV-3 ovarian) [µM] | TGI (SK-MEL-28 melanoma) [µM] | TGI (K-562 leukemia) [µM] | TGI (NCI-H226 lung) [µM] | GI50 (ACHN renal) [µM] | GI50 (HCC-2998 colon) [µM] | GI50 (BT-549 breast) [µM] | TGI (BT-549 breast) [µM] | GI50 (NCI-H23 lung) [µM] | GI50 (SF-539 CNS) [µM] | GI50 (SK-OV-3 ovarian) [µM] | GI50 (SK-MEL-28 melanoma) [µM] | GI50 (K-562 leukemia) [µM] | GI50 (NCI-H226 lung) [µM] | GI50 (A498 renal) [µM] |
| --- | --- | --- | --- | --- | --- | --- | --- | --- | --- | --- | --- | --- | --- | --- | --- | --- | --- | --- | --- | --- |
| Cn1cc(NC(=O)c2cc(NC(=O)Nc3cc(C(=O)Nc4cc(C(=O)NCCC(=N)N)n(C)c4)n(C)c3)cn2C)cc1C(=O)NCCC(=N)N | 57.9 | > 100 | > 100 | 35.2 | 63.2 | > 100 | > 100 | > 100 |  |  |  |  |  |  |  |  |  |  |  |  |
| CO/C(=N\N=C\c1ccc(Cl)cc1Cl)c1ccncc1 | > 10 |  | > 10 |  |  |  |  | > 10 | > 10 |  |  |  | > 10 |  |  |  |  |  |  |  |
| CNS(=O)(=O)NN(C)S(=O)(=O)c1ccc(Cl)cc1 | > 100 | > 100 | > 100 | > 100 | > 100 |  |  | > 100 | > 100 |  |  |  |  |  |  |  |  |  |  |  |
| COc1cc(N=Nc2ccccc2)cc(/C=N\[N-]C(N)=S)c1[O-].COc1cc(N=Nc2ccccc2)cc(/C=N\[N-]C(N)=S)c1[O-].[Fe+4] |  | > 100 | > 100 | > 100 |  | > 100 | > 100 | > 100 | > 100 |  | 29.7 |  |  | 21.1 | 43.5 | > 100 | 24.4 | 16.1 | > 100 |  |
| NC1CCCCC1N.O=C([O-])P(=O)([O-])[O-].[Na+].[Pt+4] (stereo not given) | > 100 |  | > 100 | > 100 | > 100 | > 100 | > 100 | > 100 | > 100 | > 100 |  |  |  | > 100 | > 100 | > 100 | > 100 | > 100 | > 100 | > 100 |
| c1cc(C2CCCCC2)ccc1OCCCCCCN1CCNCC1 | 3.33 | 3.76 | 3.82 | 3.25 | 26.5 | 15.2 | 8.76 | 3.11 | 26.4 | 1.78 | 2.14 |  |  | 1.96 | 1.78 | 4.16 | 2.96 | 1.46 | 4.67 | 5.06 |
| Cc1cc2c(cc1C)[n+](=O)c(C(=O)/C=C/c1ccc(Cl)cc1)c(C)n2[O-] | 62 | 46.1 | 65.6 | 47.3 | 75.9 | > 100 | 59.4 | > 100 | > 100 |  |  |  |  |  |  |  |  |  |  |  |
| CN(C)c1ccc(/C=C/C(=O)C(C)(C)C)cc1Br | > 100 | 73.9 | 75.9 | 71 | > 100 | > 100 | 47.7 | 86.3 |  |  |  |  |  |  |  |  |  |  |  |  |
| N=S(=O)(c1ccccc1)c1ccccc1[N+](=O)[O-] (stereo not given) | > 100 | > 100 | > 100 | > 100 | > 100 | > 100 |  | > 100 | > 100 |  |  |  |  |  |  |  |  |  |  |  |
| Cc1ccc(C(=O)O/N=C2/CCCCC2CN(C)C)cc1 (stereo not given) | > 100 | > 100 | > 100 | > 100 | > 100 | > 100 | > 100 | > 100 | > 100 |  |  |  |  |  |  |  |  |  |  |  |
| COc1cccc2c1C1(O)C2CCCC12OCCCO2 (stereo not given) | > 100 | > 100 | > 100 | > 100 | > 100 | > 100 | > 100 | > 100 | > 100 |  |  |  |  |  |  |  |  |  |  |  |
| CCNc1c(C(=O)N(CC)CC)c(=O)[nH]c2ncccc12 | > 100 | > 100 | > 100 | > 100 | > 100 | > 100 | > 100 | > 100 | > 100 |  |  |  |  |  |  |  |  |  |  |  |
| O=Nc1c(-c2cccc([N+](=O)[O-])c2)nc2cnccn12 | 14.2 |  | 36.1 | 59.1 |  | > 100 | 50.3 | 49.2 | 50.7 |  |  |  | > 100 |  |  |  |  |  |  |  |
| O=[N+]([O-])c1cc(O)c(O)cc1-c1cn2ccsc2n1 | > 100 | > 100 | > 100 | > 100 | 62.3 | > 100 | > 100 |  | > 100 | 42.6 | 43.7 |  |  | 67.5 | 71.1 | > 100 | 55.5 |  | 76.7 | 25.3 |
| O=S(=O)([O-])[O-].[Cl-].[NH2-].[NH2-].[NH2-].[NH2-].[Ru+3].c1ccc(-c2cccnc2)cc1 | > 100 | > 100 | > 100 | > 100 | > 100 | > 100 | > 100 | > 100 | > 100 | > 100 | > 100 |  |  | > 100 | > 100 | > 100 | > 100 | > 100 | > 100 | > 100 |
| CCNC(=O)/C=C/CCC#Cc1ccc(-c2ccc(-c3cccs3)s2)s1 | > 100 | > 100 | > 100 | > 100 |  | > 100 |  |  | > 100 |  |  |  |  |  |  |  |  |  |  |  |
